Data reported in article PMC4742190, “Mitotic entry: Non-genetic heterogeneity exposes the requirement for Plk1” (Oncotarget, 2015).

Legend:
Test in all cases: enzyme (kinase) assay
Assay type in all cases: biochemical
Plk2 = Plk2 (Homo sapiens, UniProt Q9NYY3)
Plk3 = Plk3 (Homo sapiens, UniProt Q9H4B4)
Plk1 = Plk1 (Homo sapiens, UniProt P53350)
Chain of Plk1 (P53350 2-603): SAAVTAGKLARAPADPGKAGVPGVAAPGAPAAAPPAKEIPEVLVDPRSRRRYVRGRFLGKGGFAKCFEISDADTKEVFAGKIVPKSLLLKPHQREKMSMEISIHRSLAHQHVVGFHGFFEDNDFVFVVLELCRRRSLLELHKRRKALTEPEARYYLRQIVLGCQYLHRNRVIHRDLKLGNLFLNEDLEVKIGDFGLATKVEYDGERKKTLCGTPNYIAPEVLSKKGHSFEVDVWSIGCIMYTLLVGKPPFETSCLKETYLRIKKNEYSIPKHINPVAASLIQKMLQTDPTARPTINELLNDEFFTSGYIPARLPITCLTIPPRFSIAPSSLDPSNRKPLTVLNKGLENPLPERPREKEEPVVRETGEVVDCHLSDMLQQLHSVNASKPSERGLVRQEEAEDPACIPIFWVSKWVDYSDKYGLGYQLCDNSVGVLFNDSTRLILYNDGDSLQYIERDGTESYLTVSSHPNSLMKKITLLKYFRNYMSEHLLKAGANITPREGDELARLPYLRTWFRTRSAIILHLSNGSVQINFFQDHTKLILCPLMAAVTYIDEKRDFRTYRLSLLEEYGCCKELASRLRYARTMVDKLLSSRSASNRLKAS

Chain of Plk2 (Q9NYY3 whole entry): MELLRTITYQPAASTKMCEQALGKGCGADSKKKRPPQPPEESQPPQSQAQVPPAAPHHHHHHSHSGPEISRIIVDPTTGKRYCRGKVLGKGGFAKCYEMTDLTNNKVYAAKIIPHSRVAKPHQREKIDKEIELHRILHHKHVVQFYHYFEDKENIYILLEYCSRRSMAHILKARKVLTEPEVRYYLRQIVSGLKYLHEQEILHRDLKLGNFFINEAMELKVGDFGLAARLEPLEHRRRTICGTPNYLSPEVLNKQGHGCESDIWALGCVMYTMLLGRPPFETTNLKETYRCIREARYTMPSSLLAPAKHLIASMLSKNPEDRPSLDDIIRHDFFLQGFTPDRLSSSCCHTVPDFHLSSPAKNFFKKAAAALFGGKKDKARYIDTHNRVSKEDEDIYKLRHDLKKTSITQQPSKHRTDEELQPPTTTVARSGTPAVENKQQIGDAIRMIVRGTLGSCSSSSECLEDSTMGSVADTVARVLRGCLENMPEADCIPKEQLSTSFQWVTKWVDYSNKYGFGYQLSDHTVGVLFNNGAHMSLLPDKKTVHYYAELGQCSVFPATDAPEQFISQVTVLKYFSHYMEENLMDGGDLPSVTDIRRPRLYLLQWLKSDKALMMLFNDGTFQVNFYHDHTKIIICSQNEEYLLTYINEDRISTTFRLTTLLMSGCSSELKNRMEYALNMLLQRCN
Chain of Plk3 (Q9H4B4 whole entry): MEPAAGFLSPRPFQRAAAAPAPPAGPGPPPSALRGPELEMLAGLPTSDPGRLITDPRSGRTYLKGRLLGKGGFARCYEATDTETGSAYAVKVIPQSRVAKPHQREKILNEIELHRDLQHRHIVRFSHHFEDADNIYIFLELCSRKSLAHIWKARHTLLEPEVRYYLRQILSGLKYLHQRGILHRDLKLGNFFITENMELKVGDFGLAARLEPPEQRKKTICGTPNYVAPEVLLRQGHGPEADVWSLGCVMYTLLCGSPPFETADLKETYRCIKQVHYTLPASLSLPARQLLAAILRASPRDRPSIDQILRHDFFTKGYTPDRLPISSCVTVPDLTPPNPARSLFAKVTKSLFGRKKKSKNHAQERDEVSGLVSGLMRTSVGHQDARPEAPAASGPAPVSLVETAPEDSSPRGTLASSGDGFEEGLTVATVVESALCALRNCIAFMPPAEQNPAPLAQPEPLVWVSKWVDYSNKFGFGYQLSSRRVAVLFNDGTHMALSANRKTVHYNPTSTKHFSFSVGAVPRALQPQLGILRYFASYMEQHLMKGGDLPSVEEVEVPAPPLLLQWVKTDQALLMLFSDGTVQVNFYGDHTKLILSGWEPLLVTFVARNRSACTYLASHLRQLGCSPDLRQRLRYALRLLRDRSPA

- IC50 (Plk2): 113 nM
- IC50 (Plk3): 702 nM
- IC50 (Plk1): 36 nM
Substance: CYC140844
